Among the data in patent publication US12466813B2, “PRC1 inhibitors and methods of treatment therewith” (The Regents of the University of Michigan, priority 2018, dated 2025) are Kd values, retold here.

The test addresses T1, RING1B-BMI1 (Homo sapiens, UniProt Q99496).
T1 sequence (Q99496 1-336): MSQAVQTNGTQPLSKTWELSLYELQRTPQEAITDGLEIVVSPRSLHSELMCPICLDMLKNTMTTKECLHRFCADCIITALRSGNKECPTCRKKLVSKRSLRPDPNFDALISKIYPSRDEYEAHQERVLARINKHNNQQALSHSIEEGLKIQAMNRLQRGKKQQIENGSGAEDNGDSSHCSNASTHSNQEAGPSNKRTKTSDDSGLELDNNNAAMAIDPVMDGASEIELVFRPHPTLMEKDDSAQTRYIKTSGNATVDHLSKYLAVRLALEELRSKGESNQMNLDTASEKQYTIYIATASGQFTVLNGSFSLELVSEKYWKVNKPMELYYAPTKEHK
T1 sequence (P35226 1-326 partner): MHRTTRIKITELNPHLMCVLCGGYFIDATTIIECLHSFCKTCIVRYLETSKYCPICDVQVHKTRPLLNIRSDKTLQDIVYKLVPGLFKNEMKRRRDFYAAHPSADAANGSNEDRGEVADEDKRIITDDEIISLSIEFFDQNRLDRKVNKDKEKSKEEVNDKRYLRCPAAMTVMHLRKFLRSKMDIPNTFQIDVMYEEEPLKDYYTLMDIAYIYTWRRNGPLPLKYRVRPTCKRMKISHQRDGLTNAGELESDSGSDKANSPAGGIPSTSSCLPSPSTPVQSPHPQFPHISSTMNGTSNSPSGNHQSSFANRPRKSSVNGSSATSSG
Description: KD classes of Table A (direct binding to Ring1B-Bmi1). The settings on record: class given in Table A. On the procedure: Experiments were conducted during development of embodiments herein to develop small molecule inhibitors of PRC1 by targeting the Ring1B-BMI1 E3 ligase. These compounds bind directly to Ring1B-Bmi1 with low-micromolar affinity and inhibit PRC1 in vitro and in cells. […] Experiments were conducted during development of embodiments herein to test COMPOUND 1 in leukemia stem cell models represented by TEX cells (Ref. 22; herein incorporated by reference in its entirety) and M9-ENL1 cells (Ref. 23; herein incorporated by reference in its entirety). […] In some embodiments, COMPOUND 1 and COMPOUND 1 analogs are find use as agents in targeting leukemia and other cancer stem cells.
The compounds listed in Table A have been synthesized and/or tested for activity in inhibiting activity of PRC1 complex, and are within the scope herein.
By Kd is commonly meant the equilibrium constant for the complex coming apart. Low values mean a tighter complex, high ones a looser complex. The compound `O=C(O)c1cc(-c2ccccc2)c(-c2cccc3[nH]ccc23)[nH]1` [compound 118] returned a Kd greater than 100 µM. Under `O=C(O)c1ccc(-c2cccc3c2ccn3C2CC2)[nH]1` [compound 119] stands greater than 100 µM; under `Cc1cc(-c2cccc3[nH]ccc23)[nH]c1C(=O)O` [compound 120], greater than 100 µM; under `Cc1cc(C(=O)O)[nH]c1-c1cccc2[nH]ccc12` [compound 121], greater than 100 µM. As for `CCn1ccc2c(-c3ccc(C(=O)O)[nH]3)cccc21` [compound 122], the Kd is greater than 100 µM. Under `Cn1c(C(=O)O)ccc1-c1cccc2[nH]ccc12` [compound 123] stands greater than 100 µM; under `CC(C)CCn1ccc2c(-c3ccc(C(=O)O)[nH]3)cccc21` [compound 124], greater than 100 µM; under `Nc1cccc(-c2ccc(C(=O)O)[nH]2)c1` [compound 125], greater than 100 µM. `O=C(O)c1ccc(-c2cccc3[nH]ncc23)[nH]1` [compound 126] registered an equilibrium dissociation constant (Kd) greater than 100 µM. In turn, `Cn1ccc2c(-c3ccc(C(=O)O)[nH]3)cccc21` [compound 127] yielded a Kd greater than 100 µM. `Cc1cccc(-c2ccc(C(=O)O)[nH]2)c1` [compound 128] showed a Kd greater than 100 µM.

Regarding `CCc1cccc(-c2ccc(C(=O)O)[nH]2)c1` [compound 129], the dissociation constant (Kd) was greater than 100 µM. For `O=C(O)c1ccc(-c2ccccc2O)[nH]1` [compound 130], the Kd is greater than 100 µM. As for `O=C(O)c1ccc(-c2cccc(OCC3CC3)c2)[nH]1` [compound 131], the Kd is greater than 100 µM. As for `CC(C)CCOc1cccc(-c2ccc(C(=O)O)[nH]2)c1` [compound 132], the Kd is greater than 100 µM. As for `COc1cc(OC)cc(-c2ccc(C(=O)O)[nH]2)c1` [compound 133], the Kd is greater than 100 µM.

For `O=C(O)c1ccc(-c2cccc3[nH]ccc23)[nH]1` [compound 134], the Kd was greater than 100 µM. Next, `O=C(O)c1ccc(-c2cccc(OCc3ccccc3)c2)[nH]1` [compound 135]: greater than 100 µM; `O=C(O)c1ccc(-c2ccccc2Oc2ccccc2)[nH]1` [compound 136]: greater than 100 µM; `COc1ccc(C)cc1-c1ccc(C(=O)O)[nH]1` [compound 137]: greater than 100 µM. Next, `O=C(O)c1ccc(-c2ccccc2OCc2ccccc2)[nH]1` [compound 138]: greater than 100 µM; `O=C(O)c1ccc(-c2cccc(Oc3ccccc3)c2)[nH]1` [compound 139]: greater than 100 µM; `CCOc1ccccc1-c1ccc(C(=O)O)[nH]1` [compound 140]: greater than 100 µM. Compound `COc1cccc(-c2ccc(C(=O)O)[nH]2)c1` [compound 141] came in with an equilibrium dissociation constant (Kd) greater than 100 µM.

For the compound `COc1ccccc1-c1ccc(C(=O)O)[nH]1` [compound 142], the dissociation constant (Kd) was greater than 100 µM.

Compound `O=C(O)c1ccc(-c2ccc(Cl)cc2)[nH]1` [compound 143] had a dissociation constant Kd greater than 100 µM. Under `O=C(O)c1ccc(-c2ccccc2)[nH]1` [compound 144] stands greater than 100 µM; under `NC(=O)c1ccc(-c2cccc3[nH]ccc23)[nH]1` [compound 145], greater than 100 µM; under `O=C(O)c1ccc(-c2cccc3c2ccn3CCO)[nH]1` [compound 146], greater than 100 µM. In the case of `Nc1ccccc1-c1ccc(C(=O)O)[nH]1` [compound 147], the dissociation constant (Kd) is greater than 100 µM.

`CCOc1cccc(-c2ccc(C(=O)O)[nH]2)c1` [compound 148]: the equilibrium dissociation constant (Kd) was greater than 100 µM. Under `O=C(O)c1ccc(-c2ccc(C(F)(F)F)cc2)[nH]1` [compound 150] stands greater than 100 µM; under `Cc1ccc(-c2ccc(C(=O)O)[nH]2)cc1` [compound 151], greater than 100 µM. `O=C(O)c1ccc(-c2ccccc2)s1` [compound 152] showed a dissociation constant (Kd) greater than 100 µM.

Turning to `NCCn1ccc2c(-c3ccc(C(=O)O)[nH]3)cccc21` [compound 153], the Kd is greater than 100 µM.

For `Cc1ccccc1-c1ccc(C(=O)O)[nH]1` [compound 154], the Kd was greater than 100 µM. Under `COc1ccc(OC)c(-c2ccc(C(=O)O)[nH]2)c1` [compound 155] stands greater than 100 µM.

The compound `O=C(O)c1ccc(-c2cccc(O)c2)[nH]1` [compound 156] registered a dissociation constant (Kd) greater than 100 µM. Under `COc1ccc(-c2ccc(C(=O)O)[nH]2)cc1` [compound 157] stands greater than 100 µM.

In turn, `COC(=O)c1ccc(-c2ccccc2)[nH]1` [compound 158] displayed a Kd greater than 100 µM. Compound `O=C(O)c1ccc(-c2ccc(-c3ccccc3)cc2)s1` [compound 159] showed a Kd greater than 100 µM. Under `O=C(O)c1ccc(-c2cccc3ncccc23)[nH]1` [compound 160] stands greater than 100 µM; under `CCCCc1c(-c2cccc3[nH]ccc23)[nH]c(C(=O)O)c1-c1ccccc1Cl` [compound 162], greater than 100 µM. As for `CCOC(=O)c1[nH]c(-c2cccc3[nH]ncc23)c(CC)c1-c1ccc(OC)cc1Cl` [compound 163], the Kd was greater than 100 µM. Under `CCOC(=O)c1[nH]c(-c2c(OC)cccc2OC)c(CC)c1-c1ccc(OC)cc1Cl` [compound 164] stands greater than 100 µM; under `CCC(C)c1c(-c2cc(F)cc3[nH]ccc23)[nH]c(C(=O)O)c1-c1cc(OC)cc2[nH]ccc12` (centres unmarked) [compound 171], less than 20 µM. Next, `CC(C)c1c(-c2cc(F)cc3[nH]ccc23)[nH]c(C(=O)O)c1-c1cccc2scnc12` [compound 172]: less than 20 µM. Next, `COc1cc(-c2c(C(=O)O)[nH]c(-c3cc(F)cc4[nH]ccc34)c2C2CCCC2)c2cc[nH]c2c1` [compound 173]: less than 20 µM. Compound `COc1cc(-c2c(C(=O)O)[nH]c(-c3cc(F)cc4[nH]ccc34)c2CC(C)C)c2cc[nH]c2c1` [compound 174] registered a Kd of less than 20 µM. On to `COc1cc(-c2c(C(=O)O)[nH]c(-c3cc(F)cc4[nH]ccc34)c2C(C)C)c2ccn(CC(N)=O)c2c1` [compound 175], for which the Kd is less than 20 µM. Under `COCCC(=O)NCCn1ccc2c(-c3c(C(=O)O)[nH]c(-c4cc(F)cc5[nH]ccc45)c3C(C)C)cc(OC)cc21` [compound 176] stands less than 20 µM. Next, `COc1cc(-c2c(C(=O)O)[nH]c(-c3cc(F)cc4[nH]ccc34)c2C(C)C)c2ccn(CCNC(=O)c3nccs3)c2c1` [compound 177, 5-(6-fluoro-1H-indol-4-yl)-4-isopropyl-3-(6-methoxy-1-(2-(thiazole-2-carboxamido)ethyl)-1H-indol-4-yl)-1H-pyrrole-2-carboxylic acid]: less than 20 µM; `COc1cc(-c2c(C(=O)O)[nH]c(-c3cc(F)cc4[nH]ccc34)c2C(C)C)c2ccn(CCNC(=O)Cc3cscn3)c2c1` [compound 178]: less than 20 µM.

`COc1cc(-c2c(C(=O)O)[nH]c(-c3cc(F)cc4[nH]ccc34)c2C(C)C)c2ccn(CC(=O)NCc3nc(C)cs3)c2c1` [compound 179]: the dissociation constant (Kd) was less than 20 µM. Under `CCCC(=O)NCCn1ccc2c(-c3c(C(=O)O)[nH]c(-c4cc(F)cc5[nH]ccc45)c3C(C)C)cc(OC)cc21` [compound 180] stands less than 20 µM; under `CC(C)c1c(-c2ccc3[nH]ccc3c2)[nH]c(C(=O)O)c1-c1c(Cl)ccc2[nH]ccc12` [compound 181], less than 20 µM. Under `CC(C)c1c(-c2ccc3cc[nH]c3c2)[nH]c(C(=O)O)c1-c1c(Cl)ccc2[nH]ccc12` [compound 182, 3-(5-chloro-1H-indol-4-yl)-5-(1H-indol-6-yl)-4-isopropyl-1H-pyrrole-2-carboxylic acid] stands less than 20 µM.

As for `COc1cc(-c2c(C(=O)O)[nH]c(-c3cc(F)cc4[nH]ccc34)c2C(C)C)c2c(C)c[nH]c2c1` [compound 183], the Kd was less than 20 µM. Under `CCn1ccc2cc(-c3[nH]c(C(=O)O)c(-c4c(Cl)ccc5[nH]ccc45)c3C(C)C)ccc21` [compound 184] stands less than 20 µM; under `CC(C)c1c(-c2cc(F)cc3cc[nH]c23)[nH]c(C(=O)O)c1-c1c(Cl)ccc2[nH]ccc12` [compound 185], less than 20 µM. Regarding `CCc1c[nH]c2cc(OC)cc(-c3c(C(=O)O)[nH]c(-c4cc(F)cc5[nH]ccc45)c3C(C)C)c12` [compound 186], the equilibrium dissociation constant (Kd) was less than 20 µM. The compound `CC(C)c1c(-c2cc(F)cc3[nH]ccc23)[nH]c(C(=O)O)c1-c1cccc2[nH]cc(CCO)c12` [compound 187] showed an equilibrium dissociation constant (Kd) of less than 20 µM. Next, `CC(C)CCc1c[nH]c2cccc(-c3c(C(=O)O)[nH]c(-c4cc(F)cc5[nH]ccc45)c3C(C)C)c12` [compound 188]: less than 20 µM. Next, `CC(C)c1c(-c2cc(F)cc3[nH]ccc23)[nH]c(C(=O)O)c1-c1cccc2[nH]c(CO)cc12` [compound 189]: less than 20 µM; `CC(C)c1c(-c2cc(F)cc3[nH]ccc23)[nH]c(C(=O)O)c1-c1cccc2[nH]c(C(N)=O)cc12` [compound 190]: less than 20 µM.
